Assays:
Format in all cases: cell-based
Bcl-xL = target: T1, Bcl-xL (Homo sapiens, UniProt Q07817); assay: HCT116 Bcl-xL degradation, capillary-based immunoassay (WES)
T1 construct: Measured levels of Bcl-xL protein of HCT116 cells treated with the tested compounds; host or cells: HCT116
Procedure, shortened: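 HCT116 cells treated 24 h with compound at 10/100 nM and/or 9-point dilution (quadruplicates), then lysed. Bcl-xL measured by capillary WES immunoassay, normalized to cofilin and expressed as % of untreated cells. DC50 from four-parameter curve fit.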

COR-L105 = assay: CellTiter-Glo proliferation assay, COR-L105; conditions: COR-L105, 5 days; for Emax: read-out: COR-L105 Span (max)
Procedure, shortened: (§1)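 Both lines grown in RPMI-1640 + 10% FBS. COR-L105 plated flat at 1,000 cells/well overnight; NCI-H1650 grown as spheroids, 3,000 cells/well, 72 h. Compounds at 0.508 nM-10 μM final for 5 days, 37° C. ATP read by CellTiter-Glo (3D version for spheroids); IC50 from variable-slope fit normalized to untreated cells.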

NCI-H1650 = assay: CellTiter-Glo 3D proliferation assay, NCI-H1650 spheroids; conditions: 5 days; for Emax: read-out: NCI-H1650 Span (Amax)
Procedure, shortened: as §1

T1 sequence (Q07817 whole entry): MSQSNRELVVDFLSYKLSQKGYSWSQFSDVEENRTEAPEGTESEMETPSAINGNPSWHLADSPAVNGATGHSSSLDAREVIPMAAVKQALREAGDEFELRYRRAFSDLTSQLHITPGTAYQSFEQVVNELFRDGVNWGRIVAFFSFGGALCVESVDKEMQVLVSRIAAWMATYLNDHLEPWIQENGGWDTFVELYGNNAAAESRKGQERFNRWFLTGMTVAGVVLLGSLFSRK

| SMILES | DC50 (Bcl-xL; HCT116, 24 h, 9-point serial dilution) [nM] | remaining activity at 0.01 µM (Bcl-xL; HCT-116, HCT116, 10 nM, 24 h, % of untreated cells) [%] | remaining activity at 0.1 µM (Bcl-xL; HCT-116, HCT116, 100 nM, 24 h, % of untreated cells) [%] | IC50 (COR-L105) [nM] | IC50 (COR-L105; Homo sapiens, COR-L105, 120 h) [nM] | Emax (COR-L105; Homo sapiens, COR-L105, 120 h) [%] | IC50 (NCI-H1650) [nM] | IC50 (NCI-H1650; Homo sapiens, NCI-H1650, 120 h) [nM] | Emax (NCI-H1650; Homo sapiens, NCI-H1650, 120 h) [%] |
| --- | --- | --- | --- | --- | --- | --- | --- | --- | --- |
| Cc1ncsc1-c1ccc(CNC(=O)[C@@H]2CC(O)CN2C(=O)C(NC(=O)CCCCCCC(=O)N2CCN(CCOC34CC5(C)CC(C)(CC(Cn6ncc(-c7ccc(N8CCCc9c8nnc(Nc8nc%10ccccc%10s8)c9C)nc7C(=O)O)c6C)(C5)C3)C4)CC2)C(C)(C)C)cc1 (stereo in doubt) [Example 24, 6-[3-(1,3-benzothiazol-2-ylamino)-4-methyl-6,7-dihydro-5H-pyrido[2,3-c]pyridazin-8-yl]-3-[1-[[3-[2-[4-[8-[[(1S)-1-[(2S,4R)-4-hydroxy-2-[[4-(4-methylthiazol-5-yl)phenyl]methylcarbamoyl]pyrrolidine-1-carbonyl]-2,2-dimethyl-propyl]amino]-8-oxo-octanoyl]piperazin-1-yl]ethoxy]-5,7-dimethyl-1-adamantyl]methyl]-5-methyl-pyrazol-4-yl]pyridine-2-carboxylic acid] | > 316 | 75 | 44 | 348 | 500 | 104 | 92.9 | 95 | 89.1 |
| Cc1ncsc1-c1ccc([C@H](C)NC(=O)[C@@H]2C[C@@H](O)CN2C(=O)[C@@H](NC(=O)CCCCCCCCCCC(=O)N2CCN(CC#Cc3ccc(OCCCc4sc(N5CCCc6c5nnc(Nc5nc7ccccc7s5)c6C)nc4C(=O)O)c(F)c3)CC2)C(C)(C)C)cc1 [Example 46, 2-(3-(benzo[d]thiazol-2-ylamino)-4-methyl-6,7-dihydropyrido [2,3-c]pyridazin-8(5H)-yl)-5-(3-(2-fluoro-4-(3-(4-(12-(((S)-1-((2S,4R)-4-hydroxy-2-(((S)-1-(4-(4-methylthiazol-5-yl)phenyl)ethyl)carbamoyl)pyrrolidin-1-yl)-3,3-dimethyl-1-oxobutan-2-yl)amino)-12-oxododecanoyl)piperazin-1-yl)prop-1-yn-1-yl)phenoxy)propyl)thiazole-4-carboxylic acid] |  |  |  |  | 163 | 101 |  | 4.91 | 83.2 |
| Cc1ncsc1-c1ccc([C@H](C)NC(=O)[C@@H]2C[C@@H](O)CN2C(=O)[C@@H](NC(=O)CCCCCCCCCCC(=O)N2CCN(CCOC34CC5(C)CC(C)(CC(Cn6ncc(-c7ccc(N8CCCc9c8nnc(Nc8nc%10ccccc%10s8)c9C)nc7C(=O)O)c6C)(C5)C3)C4)CC2)C(C)(C)C)cc1 [Example 47, 6-(3-(benzo[d]thiazol-2-ylamino)-4-methyl-6,7-dihydropyrido [2,3-c]pyridazin-8(5H)-yl)-3-(1-(((1r,3s,5R,7S)-3-(2-(4-(12-(((S)-1-((2S,4R)-4-hydroxy-2-(((S)-1-(4-(4-methylthiazol-5-yl)phenyl)ethyl)carbamoyl)pyrrolidin-1-yl)-3,3-dimethyl-1-oxobutan-2-yl)amino)-12-oxododecanoyl)piperazin-1-yl)ethoxy)-5,7-dimethyladamantan-1-yl)methyl)-5-methyl-1H-pyrazol-4-yl)picolinic acid] |  |  |  |  | 228 | 97.6 |  | 12.5 | 97.1 |
